Assays:
[1] = test system: THP-1 cells (TNFα secretion on human IgG-coated plate); test: TNFα generation assay; type: cell-based; settings: IFN-γ differentiated THP-1 cells, 7 hours, AlphaLISA, read-out: IC50 of TNFα generation inhibitory activity
How it was run: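 THP-1 cells were differentiated with 10 ng/ml IFN-γ for 2 days, then preincubated with compound for 30 min at room temperature. They were then plated at 5×10^4 cells/well on plates coated with human IgG (10 μg/ml). TNFα secreted over 7 h of culture was quantified by AlphaLISA.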

[2] = test system: mouse thrombocytopenia induced by anti-mouse CD41 antibody; test: Mouse thrombocytopenia model; type: in vivo; settings: Platelet, female BALB/c mice, 50 mg/kg 1 hour before anti-CD41 antibody, blood sampling 4 hours after antibody, read-out: improvement of platelet count compared with the control group
Protocol: Test compounds were tested to examine effects upon mouse thrombocytopenia. Each test compound (50 mg/kg) was administered to 5- to 7-week-old female BALB/c mice (Charles River Laboratories Japan, Inc.). One hour thereafter, an anti-mouse CD41 ([…]) antibody (SCB) (1 μg (200 μl)) was intravenously administered to each mouse so as to induce thrombocytopenia. Four hours after administration of the anti-CD41 antibody, blood sampling from the postcava was performed. The platelet count was determined using an automated hematology analyzer.

[3] = target: T1, glutathione S-transferase (GST)-linked full-length human Syk protein (Homo sapiens, UniProt P43405); test: Syk enzyme assay; type: biochemical; settings: 0.83 nM Syk, time-resolved fluorescence; read-out: IC50 of Syk-inhibitory activity
T1 construct: glutathione S-transferase (GST)-linked full-length human Syk protein; purchased Carna Biosciences; host or cells: Baculovirus expression system
How it was run: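 Phosphotyrosine on a biotin-peptide substrate (0.5 μM) was read by time-resolved fluorescence at 615 and 665 nm with Eu-anti-pTyr antibody and APC-streptavidin after 1 h EDTA stop.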

[4] = test system: THP-1 cells (phagocytosis of opsonized Escherichia coli); test: Antibody-dependent phagocytosis assay; type: cell-based; settings: Homo sapiens; IFNγ differentiated THP-1 cells, opsonized pHrodo Escherichia coli, 3 hours; read-out: IC50 upon phagocytosis inhibition
How it was run: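 THP-1 cells were differentiated to macrophage-like cells with 10 ng/ml IFNγ for 2 days, then treated with test compound for 30 min at room temperature. pHrodo-labeled E. coli opsonized with anti-E. coli antibody were added for 3 h at 37° C. Phagocytosis by viable (Calcein AM-positive) cells was quantified by imaging.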

SMILES	IC50 [1]	change in vivo at 50 mg/kg [2]	IC50 [3]	IC50 [4]
CC[C@@H](Nc1nc(Nc2cnc3c(c2)c(OC)nn3C)c(C(N)=O)cc1F)[C@H](C)N [Example 2-251, 6-(((2S,3R)-2-aminopentan-3-yl)amino)-5-fluoro-2-((3-methoxy-1-methyl-1H-pyrazolo[3,4-b]pyridin-5-yl)amino)nicotinamide]	130 to 200 nM	≥ 50%	10 to 50 nM	–
COCCn1ncc2c(Nc3nc(N[C@H](C4CC4)[C@H](C)N)c(F)cc3C(N)=O)cccc21 [Example 2-306, 6-(((1R,2S)-2-amino-1-cyclopropylpropyl)amino)-5-fluoro-2-((1-(2-methoxyethyl)-1H-indazol-4-yl)amino)nicotinamide]	130 to 200 nM	–	< 10 nM	1000 to 3000 nM
CCn1ncc2c(Nc3nc(N[C@@H]4CCCC[C@@H]4N)c(F)cc3C(N)=O)cncc21 [Example 2-316]	65 to 130 nM	–	< 10 nM	< 1000 nM
CCn1ncc2c(Nc3nc(N[C@@H]4CCOC[C@@H]4N)c(F)cc3C(N)=O)cncc21 [Example 2-317, 6-(((3R,4R)-3-aminotetrahydro-2H-pyran-4-yl)amino)-2-((1-ethyl-1H-pyrazolo[3,4-c]pyridin-4-yl)amino)-5-fluoronicotinamide]	65 to 130 nM	–	< 10 nM	1000 to 3000 nM
CCC[C@@H](Nc1nc(Nc2cncc3c2cnn3CC)c(C(N)=O)cc1F)[C@H](C)N [Example 2-319, 6-(((2S,3R)-2-aminohexan-3-yl)amino)-2-((1-ethyl-1H-pyrazolo[3,4-c]pyridin-4-yl)amino)-5-fluoronicotinamide]	65 to 130 nM	–	< 10 nM	< 1000 nM
CCn1ncc2c(Nc3nc(N[C@H](C4CC4)[C@H](C)N)c(F)cc3C(N)=O)cncc21 [Example 2-320, 6-(((1R,2S)-2-amino-1-cyclopropylpropyl)amino)-2-((1-ethyl-1H-pyrazolo[3,4-c]pyridin-4-yl)amino)-5-fluoronicotinamide]	65 to 130 nM	–	< 10 nM	< 1000 nM
CCCC[C@@H](Nc1nc(Nc2cncc3c2cnn3CC)c(C(N)=O)cc1F)[C@H](C)N [Example 2-321, 6-(((2S,3R)-2-aminoheptan-3-yl)amino)-2-((1-ethyl-1H-pyrazolo[3,4-c]pyridin-4-yl)amino)-5-fluoronicotinamide]	130 to 200 nM	–	< 10 nM	1000 to 3000 nM
CCn1ncc2c(Nc3nc(N[C@H](CC(C)C)[C@H](C)N)c(F)cc3C(N)=O)cncc21 [Example 2-322, 6-(((2S,3R)-2-amino-5-methylhexan-3-yl)amino)-2-((1-ethyl-1H-pyrazolo[3,4-c]pyridin-4-yl)amino)-5-fluoronicotinamide]	65 to 130 nM	–	< 10 nM	< 1000 nM
CC[C@H](N)[C@@H](C)Nc1nc(Nc2cncc3c2cnn3CC)c(C(N)=O)cc1F [Example 2-325, 6-(((2R,3S)-3-aminopentan-2-yl)amino)-2-((1-ethyl-1H-pyrazolo[3,4-c]pyridin-4-yl)amino)-5-fluoronicotinamide]	130 to 200 nM	–	< 10 nM	< 1000 nM
CCn1ncc2cc(Nc3nc(N[C@@H]4CCOC[C@@H]4N)c(F)cc3C(N)=O)ccc21 [Example 2-326, 6-(((3R,4R)-3-aminotetrahydro-2H-pyran-4-yl)amino)-2-((1-ethyl-1H-indazol-5-yl)amino)-5-fluoronicotinamide]	< 65 nM	≥ 50%	< 10 nM	–
Cc1nn(CC(F)F)c2ccc(Nc3nc(N[C@@H]4CCOC[C@@H]4N)c(F)cc3C(N)=O)cc12 [Example 2-328, 6-(((3R,4R)-3-aminotetrahydro-2H-pyran-4-yl)amino)-2-((1-(2,2-difluoroethyl)-3-methyl-1H-indazol-5-yl)amino)-5-fluoronicotinamide]	< 65 nM	≥ 50%	< 10 nM	–
NC(=O)c1cc(F)c(N[C@@H]2CCOC[C@@H]2N)nc1Nc1cccc2c1cnn2CC(F)F [Example 2-332, 6-(((3R,4R)-3-aminotetrahydro-2H-pyran-4-yl)amino)-2-((1-(2,2-difluoroethyl)-1H-indazol-4-yl)amino)-5-fluoronicotinamide]	65 to 130 nM	–	< 10 nM	< 1000 nM
COCCn1ncc2c(Nc3nc(N[C@@H]4CCOC[C@@H]4N)c(F)cc3C(N)=O)cc(F)cc21 [Example 2-375, 6-(((3R,4R)-3-aminotetrahydro-2H-pyran-4-yl)amino)-5-fluoro-2-((6-fluoro-1-(2-methoxyethyl)-1H-indazol-4-yl)amino)nicotinamide]	65 to 130 nM	–	< 10 nM	1000 to 3000 nM
CC[C@@H](Nc1nc(Nc2cc(F)cc3c2cnn3CCOC)c(C(N)=O)cc1F)[C@H](C)N [Example 2-376, 6-(((2S,3R)-2-aminopentan-3-yl)amino)-5-fluoro-2-((6-fluoro-1-(2-methoxyethyl)-1H-indazol-4-yl)amino)nicotinamide]	65 to 130 nM	–	< 10 nM	< 1000 nM
CCn1ncc2c(Nc3nc(N[C@H](C4CCC4)[C@H](C)N)c(F)cc3C(N)=O)cncc21 [Example 2-406, 6-(((1R,2S)-2-amino-1-cyclobutylpropyl)amino)-2-((1-ethyl-1H-pyrazolo[3,4-c]pyridin-4-yl)amino)-5-fluoronicotinamide]	130 to 200 nM	–	< 10 nM	1000 to 3000 nM
Cc1ncc(Nc2nc(N[C@H](c3ccccc3F)[C@H](C)N)c(F)cc2C(N)=O)cc1-n1nccn1 [Example 2-409, 6-(((1R,2S)-2-amino-1-(2-fluorophenyl)propyl)amino)-5-fluoro-2-((6-methyl-5-(2H-1,2,3-triazol-2-yl)pyridin-3-yl)amino)nicotinamide]	130 to 200 nM	–	< 10 nM	1000 to 3000 nM
Cc1ncc(Nc2nc(N[C@H](c3cccs3)[C@H](C)N)c(F)cc2C(N)=O)cc1-n1nccn1 [Example 2-415, 6-(((1S,2S)-2-amino-1-(thiophen-2-yl)propyl)amino)-5-fluoro-2-((6-methyl-5-(2H-1,2,3-triazol-2-yl)pyridin-3-yl)amino)nicotinamide]	130 to 200 nM	≥ 50%	< 10 nM	–
COCCN(C)c1nn(C)c2ccc(Nc3nc(N[C@@H]4CCCC[C@@H]4N)c(F)cc3C(N)=O)cc12 [Example 2-456, 6-(((1R,2S)-2-aminocyclohexyl)amino)-5-fluoro-2-((3-((2-methoxyethyl)(methyl)amino)-1-methyl-1H-indazol-5-yl)amino)nicotinamide]	–	≥ 50%	< 10 nM	–
Cc1cc(C)n(-c2cncc(Nc3nc(N[C@@H]4CCCC[C@@H]4N)c(F)cc3C(N)=O)c2)n1 [Example 2-473, 6-(((1R,2S)-2-aminocyclohexyl)amino)-2-((5-(3,5-dimethyl-1H-pyrazol-1-yl)pyridin-3-yl)amino)-5-fluoronicotinamide]	–	≥ 50%	10 to 50 nM	–
NC(=O)c1cc(F)c(N[C@@H]2CCCC[C@@H]2N)nc1Nc1cncc(-n2cc(Cl)cn2)c1 [Example 2-483, 6-(((1R,2S)-2-aminocyclohexyl)amino)-2-((5-(4-chloro-1H-pyrazol-1-yl)pyridin-3-yl)amino)-5-fluoronicotinamide]	–	≥ 50%	< 10 nM	–
